Several values for one entry are separate records, joined by “and”; a condition that tells them apart may be missing. Identical values can stand only once. Inconclusive results and toxic doses are left out. No stated cut-off is given here; in the data, active means T/C of 150% or more; inactive means T/C below 125%.
Tested on: L1210 leukemia ip in BDF1 mice, survival T/C
Experiment: NCI In Vivo Anticancer Drug Screen. Data for tumor model L1210 Leukemia (intraperitoneal) in B6D2F1 (BDF1) mice
Settings: endpoint: mean survival time, higher = longer survival
Summary of the method: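 Tumor cells were implanted, animals were treated, and survival was followed. The result divides the treated measurement by the vehicle-control measurement.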

[1] = dose: 100.0 mg/kg/injection, schedule: Q04DX002 (ip), vehicle: Klucel (hydroxypropylcellulose) (HPC)
[2] = dose: 200.0 mg/kg/injection, schedule: Q04DX002 (ip), vehicle: Klucel (hydroxypropylcellulose) (HPC)
[3] = dose: 400.0 mg/kg/injection, schedule: Q04DX002 (ip), vehicle: Klucel (hydroxypropylcellulose) (HPC)
[4] = dose: 100.0 mg/kg/injection, schedule: Q04DX003 (ip), vehicle: saline with Tween-80
[5] = dose: 200.0 mg/kg/injection, schedule: Q04DX003 (ip), vehicle: saline with Tween-80
[6] = dose: 400.0 mg/kg/injection, schedule: Q04DX003 (ip), vehicle: saline with Tween-80
[7] = dose: 100.0 mg/kg/injection, schedule: Q01DX001 (ip), vehicle: Klucel (hydroxypropylcellulose) (HPC)
[8] = dose: 100.0 mg/kg/injection, schedule: Q01DX009 (ip), vehicle: Klucel (hydroxypropylcellulose) (HPC)
[9] = dose: 100.0 mg/kg/injection, schedule: Q04DX003 (ip), vehicle: Klucel (hydroxypropylcellulose) (HPC)
[10] = dose: 200.0 mg/kg/injection, schedule: Q01DX009 (ip), vehicle: Klucel (hydroxypropylcellulose) (HPC)
[11] = dose: 200.0 mg/kg/injection, schedule: Q04DX003 (ip), vehicle: Klucel (hydroxypropylcellulose) (HPC)
[12] = dose: 400.0 mg/kg/injection, schedule: Q01DX009 (ip), vehicle: Klucel (hydroxypropylcellulose) (HPC)
[13] = dose: 400.0 mg/kg/injection, schedule: Q04DX003 (ip), vehicle: Klucel (hydroxypropylcellulose) (HPC)
[14] = dose: 50.0 mg/kg/injection, schedule: Q04DX002 (ip), vehicle: Klucel (hydroxypropylcellulose) (HPC)
[15] = dose: 50.0 mg/kg/injection, schedule: Q01DX009 (ip), vehicle: Klucel (hydroxypropylcellulose) (HPC)
[16] = dose: 100.0 mg/kg/injection, schedule: Q01DX009 (ip), vehicle: saline with Tween-80
[17] = dose: 200.0 mg/kg/injection, schedule: Q01DX009 (ip), vehicle: saline with Tween-80
[18] = dose: 400.0 mg/kg/injection, schedule: Q01DX009 (ip), vehicle: saline with Tween-80
[19] = dose: 100.0 mg/kg/injection, schedule: Q01DX001 (ip), vehicle: other
[20] = dose: 200.0 mg/kg/injection, schedule: Q01DX001 (ip), vehicle: other
[21] = dose: 400.0 mg/kg/injection, schedule: Q01DX001 (ip), vehicle: other
[22] = dose: 100.0 mg/kg/injection, schedule: Q01DX001 (ip), vehicle: saline
[23] = dose: 200.0 mg/kg/injection, schedule: Q01DX001 (ip), vehicle: saline
[24] = dose: 400.0 mg/kg/injection, schedule: Q01DX001 (ip), vehicle: saline
[25] = dose: 100.0 mg/kg/injection, schedule: Q01DX001 (ip), vehicle: saline with Tween-80
[26] = dose: 200.0 mg/kg/injection, schedule: Q01DX001 (ip), vehicle: saline with Tween-80
[27] = dose: 400.0 mg/kg/injection, schedule: Q01DX001 (ip), vehicle: saline with Tween-80

Measured: T/C

COc1ccc(OCCOC(C)=O)cc1
inactive: [1] 107 % of control | [2] 100 % of control | [3] 103 % of control

N#CCC(=O)Cc1ccccc1[N+](=O)[O-]
inactive: [4] 95 % of control | [5] 100 % of control | [6] 94 % of control

Cc1ccc(C(C)C)c(OC(=O)Nc2ccc(Cl)cc2)c1
inactive: [7] 95 % of control | [8] 96 % of control and 103 % of control | [1] 98 % of control and 102 % of control | [9] 100 % of control and 120 % of control | dose: 200.0 mg/kg/injection, schedule: Q01DX001 (ip), vehicle: Klucel (hydroxypropylcellulose) (HPC) 88 % of control | [10] 98 % of control and 100 % of control | [2] 102 % of control | [11] 104 % of control and 124 % of control | dose: 400.0 mg/kg/injection, schedule: Q01DX001 (ip), vehicle: Klucel (hydroxypropylcellulose) (HPC) 88 % of control | [12] 96 % of control and 91 % of control | [3] 94 % of control and 98 % of control | [13] 96 % of control

CCCC(CCC)(C(N)=O)c1ccc(OC)cc1
inactive: dose: 100.0 mg/kg/injection, schedule: Q01DX001 (ip), vehicle: carboxymethylcellulose (CMC) 87 % of control | dose: 200.0 mg/kg/injection, schedule: Q01DX001 (ip), vehicle: carboxymethylcellulose (CMC) 98 % of control | dose: 400.0 mg/kg/injection, schedule: Q01DX001 (ip), vehicle: carboxymethylcellulose (CMC) 93 % of control

COc1ccc(/C=N\NC(=O)c2ccncc2)cc1
inactive: [14] 109 % of control | [1] 113 % of control | [2] 106 % of control | [3] 118 % of control

CS(=O)(=O)Oc1cc(=O)oc2ccccc12
inactive: [15] 103 % of control | [8] 109 % of control

O=C(O)c1ccc(S(=O)(=O)Cl)cc1
inactive: dose: 12.5 mg/kg/injection, schedule: Q04DX002 (ip), vehicle: Klucel (hydroxypropylcellulose) (HPC) 97 % of control | dose: 25.0 mg/kg/injection, schedule: Q04DX002 (ip), vehicle: Klucel (hydroxypropylcellulose) (HPC) 90 % of control | [14] 107 % of control

COc1ccc([N+](=O)[O-])c(O)c1C
inactive: [16] 90 % of control | [17] 96 % of control | [18] 106 % of control

Cn1c(N)c(N=Cc2ccncc2)c(=O)n(C)c1=O
inactive: dose: 50.0 mg/kg/injection, schedule: Q01DX001 (ip), vehicle: other 103 % of control | [19] 92 % of control | [20] 94 % of control | [21] 97 % of control

CCOc1ccccc1NC(=O)COc1ccc(Cl)cc1
inactive: [8] 98 % of control | [9] 90 % of control | [10] 103 % of control | [11] 101 % of control | [12] 97 % of control | [13] 108 % of control

CC(C)/C([O-])=N\[N+](C)(C)Cc1ccccc1
inactive: dose: 100.0 mg/kg/injection, schedule: Q04DX003 (ip), vehicle: saline 105 % of control | dose: 200.0 mg/kg/injection, schedule: Q04DX003 (ip), vehicle: saline 100 % of control | dose: 400.0 mg/kg/injection, schedule: Q04DX003 (ip), vehicle: saline 98 % of control

COc1ccc([N+](=O)[O-])cc1NC(=O)Nc1ccccc1C(N)=O
inactive: [15] 105 % of control | [8] 101 % of control | [10] 97 % of control

CCOP1(=S)OCCO1
inactive: [9] 100 % of control | [11] 103 % of control

O=C(O)CCCC[Se][Se]CCCCC(=O)O
inactive: dose: 25.0 mg/kg/injection, schedule: Q01DX001 (ip), vehicle: Klucel (hydroxypropylcellulose) (HPC) 102 % of control | dose: 50.0 mg/kg/injection, schedule: Q01DX001 (ip), vehicle: Klucel (hydroxypropylcellulose) (HPC) 96 % of control | [7] 99 % of control

Nc1cc(O)cc(O)c1
inactive: [16] 95 % of control | [4] 91 % of control | [17] 95 % of control | [5] 98 % of control | [18] 102 % of control | [6] 89 % of control

CCc1ccc(NC(=O)Nc2ccc(OC)cc2)cc1
inactive: dose: 100.0 mg/kg/injection, schedule: Q01DX009 (ip), vehicle: gum acacia 97 % of control | dose: 100.0 mg/kg/injection, schedule: Q04DX003 (ip), vehicle: gum acacia 95 % of control | dose: 200.0 mg/kg/injection, schedule: Q01DX009 (ip), vehicle: gum acacia 92 % of control | dose: 200.0 mg/kg/injection, schedule: Q04DX003 (ip), vehicle: gum acacia 92 % of control | dose: 400.0 mg/kg/injection, schedule: Q01DX009 (ip), vehicle: gum acacia 91 % of control | dose: 400.0 mg/kg/injection, schedule: Q04DX003 (ip), vehicle: gum acacia 94 % of control

CCCCOC(=O)CCCCC(=O)OC(C)C(=O)OCCCC (stereo not given)
inactive: [22] 102 % of control | [23] 102 % of control | [24] 89 % of control

CC(=O)Nc1cccc([N+](=O)[O-])c1
inactive: dose: 50.0 mg/kg/injection, schedule: Q01DX009 (ip), vehicle: saline with Tween-80 100 % of control | [22] 108 % of control | [16] 90 % of control | [23] 102 % of control | [17] 103 % of control | [24] 108 % of control

O=C(Nc1ccccc1F)Sc1c(Cl)c(Cl)nc(Cl)c1Cl
inactive: dose: 25.0 mg/kg/injection, schedule: Q01DX009 (ip), vehicle: Klucel (hydroxypropylcellulose) (HPC) 96 % of control and 101 % of control | dose: 25.0 mg/kg/injection, schedule: Q04DX003 (ip), vehicle: Klucel (hydroxypropylcellulose) (HPC) 105 % of control | [15] 94 % of control and 101 % of control | dose: 50.0 mg/kg/injection, schedule: Q04DX003 (ip), vehicle: Klucel (hydroxypropylcellulose) (HPC) 102 % of control | [1] 101 % of control and 107 % of control | [9] 113 % of control | [2] 96 % of control and 106 % of control | [3] 103 % of control and 115 % of control

Nc1ncnc2n[nH]nc12
inactive: [15] 104 % of control | [8] 106 % of control

COc1ccc(NC(=O)COc2ccccc2Br)cc1
inactive: [8] 95 % of control | [9] 101 % of control | [10] 97 % of control | [11] 96 % of control | [12] 93 % of control | [13] 93 % of control

CCOC(=O)C(CCCO)C(=O)OCC
inactive: [25] 98 % of control | [26] 96 % of control | [27] 91 % of control

CCN1CCC2C[N+](C)([O-])CCN2C1=O (stereo not given)
inactive: [4] 93 % of control | [5] 95 % of control | [6] 98 % of control

CCN(CC)CCOc1ccc(-c2nc3cc(Cl)ccc3s2)cc1
inactive: dose: 15.0 mg/kg/injection, schedule: Q01DX015 (ip), vehicle: saline 95 % of control | dose: 30.0 mg/kg/injection, schedule: Q01DX015 (ip), vehicle: saline 94 % of control | dose: 60.0 mg/kg/injection, schedule: Q01DX015 (ip), vehicle: saline 94 % of control | dose: 120.0 mg/kg/injection, schedule: Q01DX015 (ip), vehicle: saline 91 % of control

NC(=O)NN=C1CCCCCCCCCCC1
inactive: [19] 95 % of control | [4] 97 % of control | [20] 95 % of control | [5] 105 % of control | [21] 103 % of control | [6] 94 % of control

C=CCC(CCCCCCCCCCCCC)C(=O)O (stereo not given)
inactive: [25] 96 % of control | [26] 105 % of control | [27] 101 % of control

Cc1nc2c(ncn2C2OC(CO)C(O)C2O)c(=O)[nH]1 (stereo not given)
inactive: dose: 100.0 mg/kg/injection, schedule: Q01DX005 (ip), vehicle: saline 103 % of control | dose: 200.0 mg/kg/injection, schedule: Q01DX005 (ip), vehicle: saline 93 % of control

O=c1nc2n(CCO)c3ccccc3nc-2c(=O)[nH]1
inactive: dose: 25.0 mg/kg/injection, schedule: Q04DX002 (ip), vehicle: saline 100 % of control | dose: 50.0 mg/kg/injection, schedule: Q04DX002 (ip), vehicle: saline 106 % of control | dose: 100.0 mg/kg/injection, schedule: Q04DX002 (ip), vehicle: saline 95 % of control

— PubChem BioAssay AID248 (DTP/NCI, 2004)
